Data taken from patent US9604940B2 (Chroma Therapeutics Ltd., priority 2012, dated 2017).

Columns and labels:
CSF1R (FMS) = molecular target: T1, CSF1R (FMS) (Homo sapiens, UniProt P07333); test: CSF1R (FMS) kinase activity, Z'-LYTE biochemical assay (Invitrogen); conditions: ATP at or close to Km, 60 minute reaction at room temperature, read-out: Inhibitor activity versus CSF-1
T1 construct: purchased Invitrogen (Paisley, UK)
Protocol: CSF1R (FMS) Kinase Activity
The ability of compounds to inhibit CSF1R (FMS) kinase activity was measured in an assay performed by Invitrogen (Paisley, UK). The Z′-LYTE™ biochemical assay employs a fluorescence-based, coupled-enzyme format and is based on the differential sensitivity of phosphorylated and non-phosphorylated peptides to proteolytic cleavage. The peptide substrate is labelled with two fluorophores—one at each end—that make up a FRET pair. In the primary reaction, the kinase transfers the gamma-phosphate of ATP to a single […] residue in a synthetic FRET-peptide. In the secondary reaction, a site-specific protease recognizes and cleaves non-phosphorylated FRET-peptides. Phosphorylation of FRET-peptides suppresses cleavage by the Development Reagent. Cleavage disrupts FRET between the donor (i.e. coumarin) and acceptor (i.e. fluorescein) fluorophores on the FRET-peptide, whereas uncleaved, phosphorylated FRET-peptides maintain FRET. A […] method, which calculates the ratio (the Emission Ratio) of donor emission to acceptor emission after excitation of the donor fluorophore at 400 nm, is used to quantitate reaction progress.
The final 10 μL Kinase Reaction consists of 0.12-12.3 ng CSF1R (FMS), 2 μM Tyr 01 Peptide and ATP in 50 mM HEPES pH 7.5, 0.01% BRIJ-35, 10 mM MgCl2, 1 mM EGTA. The assay is performed at an ATP concentration at, or close to, the Km. After the 60 minute Kinase Reaction incubation at room temperature, 5 μL of a 1:256 dilution of Development Reagent is added. The assay plate is incubated for a further 60 minutes at room temperature and read on a fluorescence plate reader.
Duplicate data points are generated from a ⅓ log dilution series of a stock solution of test compound in DMSO. Nine dilutions steps are made from a top concentration of 10 mM, and a ‘no compound’ blank is included. Data is collected and analysed using XLfit software from IDBS. The dose response curve is curve fitted to model number 205 (sigmoidal dose-response model). From the curve generated, the concentration giving 50% inhibition is determined and reported.

MCP-1 = test: MCSF-stimulation of human whole blood, MCP-1 levels by sandwich ELISA; type: cell-based; conditions: inhibitor 2 hours before MCSF 50 ng/ml, 22 hrs, MCP-1 in cell-free supernatants, read-out: Inhibitor activity versus MCP-1
Protocol: Macrophage Colony-Stimulating Factor (MCSF)-Stimulation of Human Whole Blood
Whole blood was taken by venous puncture using heparinised vacutainers (Becton Dickinson) and diluted in an equal volume of RPMI1640 tissue culture media (Sigma). 100 μl was plated in V-bottomed 96 well tissue culture treated plates. 2 hours after the addition of the inhibitor in 100 μl of RPMI1640 media, the blood was stimulated with MCSF (Peprotech: #300-25-10 uG) at a final concentration of 50 ng/ml and incubated at 37° C. in 5% CO2 for 22 hrs. MCP-1 levels were measured from cell-free supernatants by sandwich ELISA developed from MCP-1/CCL2 Duoset (R&D Systems #DY279). Additional reagents required for ELISA were purchased from Sigma, (BSA: A3059, 10×PBS: D1408, Tween20: P5927) R&D Systems, (colour reagent: #DY999 and stop solution: #DY994) and Costar (96-well EIA plates: #2592). Assays were carried out following the manufacturer's instructions with the following modifications: Cell-free supernatants were diluted 30:70 in reagent diluent before assay. All incubations except capture antibody were carried out with shaking at 550 rpm. 3 washes were carried out between steps, and incubation times were blocking 1.5 hr, sample/standard and detection antibody incubations 2 hr, HRP incubation 30 min, colour development 20 min. • IC50 values were allocated to one of five ranges as follows: • Range A: IC50<100 nM • Range B: 100 nM<IC50<300 nM • Range C: 300 nM<1050<1000 nM • Range D: 1000 nM<IC50<5000 nM • Range E: IC50>5000 nM • NT=not tested

T1 sequence (P07333 20-972): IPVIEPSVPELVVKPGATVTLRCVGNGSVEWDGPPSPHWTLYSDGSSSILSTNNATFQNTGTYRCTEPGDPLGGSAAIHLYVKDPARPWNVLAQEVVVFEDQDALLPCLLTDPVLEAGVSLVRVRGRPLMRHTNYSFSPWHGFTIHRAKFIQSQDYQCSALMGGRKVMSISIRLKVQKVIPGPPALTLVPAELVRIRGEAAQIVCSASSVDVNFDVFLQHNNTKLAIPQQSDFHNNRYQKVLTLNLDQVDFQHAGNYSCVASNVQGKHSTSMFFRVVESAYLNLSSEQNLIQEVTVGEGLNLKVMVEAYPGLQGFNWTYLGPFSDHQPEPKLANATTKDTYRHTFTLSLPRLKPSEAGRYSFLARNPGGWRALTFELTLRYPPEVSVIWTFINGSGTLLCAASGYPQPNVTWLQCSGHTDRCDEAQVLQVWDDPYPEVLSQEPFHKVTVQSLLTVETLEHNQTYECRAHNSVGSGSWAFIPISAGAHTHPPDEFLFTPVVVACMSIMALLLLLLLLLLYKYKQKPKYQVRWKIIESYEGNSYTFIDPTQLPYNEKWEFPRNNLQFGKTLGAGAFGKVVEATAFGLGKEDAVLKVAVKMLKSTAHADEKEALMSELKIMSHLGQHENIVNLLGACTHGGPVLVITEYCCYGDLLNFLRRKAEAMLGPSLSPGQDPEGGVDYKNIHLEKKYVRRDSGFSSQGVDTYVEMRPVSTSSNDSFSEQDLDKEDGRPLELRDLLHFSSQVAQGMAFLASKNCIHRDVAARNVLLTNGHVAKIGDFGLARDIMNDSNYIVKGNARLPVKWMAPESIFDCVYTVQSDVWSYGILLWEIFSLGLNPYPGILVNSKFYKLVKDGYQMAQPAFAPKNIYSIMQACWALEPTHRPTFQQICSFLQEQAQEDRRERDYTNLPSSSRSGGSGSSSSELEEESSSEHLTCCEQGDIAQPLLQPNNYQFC

Row | SMILES | IC50 (CSF1R (FMS)) | IC50 (MCP-1)
1 | CCN(Cc1ccc(-c2cnc(N)c(NCc3c(Cl)cccc3Cl)n2)cc1)C1CCN[C@@H](C(=O)OC(C)(C)C)C1 (stereo partly drawn) [Example 30, tert-Butyl (2R)-4-[(4-{5-amino-6-[(2,6-dichlorobenzyl)amino]pyrazin-2-yl}benzyl)(ethyl)amino]piperidine-2-carboxylate] | 100 to 300 nM | 100 to 300 nM
2 | CC(C)(C)OC[C@H](NCc1cccc(-c2cnc(N)c(NCc3c(Cl)cccc3Cl)n2)c1)C(=O)OC1CCCC1 [Example 43, Cyclopentyl N-(3-{5-amino-6-[(2,6-dichlorobenzyl)amino]pyrazin-2-yl}benzyl)-O-tert-butyl-L-serinate] | > 5000 nM | > 5000 nM
3 | Nc1ncc(-c2cccc(C(=O)NC3CCN[C@@H](C(=O)OC4CCCC4)C3)c2)nc1NCc1c(Cl)cccc1Cl (stereo partly drawn) [Example 32, Cyclopentyl (2R)-4-[(3-{5-amino-6-[(2,6-dichlorobenzyl)amino]pyrazin-2-yl}benzoyl)amino]piperidine-2-carboxylate] | 100 to 300 nM | 1000 to 5000 nM
4 | Nc1ncc(-c2cccc(CNC3CCN[C@@H](C(=O)OC4CCCC4)C3)c2)nc1NCc1c(Cl)cccc1Cl (stereo partly drawn) [Example 34, Cyclopentyl (2R)-4-[(3-{5-amino-6-[(2,6-dichlorobenzyl)amino]pyrazin-2-yl}benzyl)amino]piperidine-2-carboxylate] | < 100 nM | 100 to 300 nM
5 | CCc1cc(-c2cnc(N)c(NCc3c(Cl)cccc3Cl)n2)ccc1CN1CCNC(C(=O)OC2CCCC2)C1 (centres unmarked) [Example 20, Cyclopentyl 4-(4-{5-amino-6-[(2,6-dichlorobenzyl)amino]pyrazin-2-yl}-2-ethylbenzyl)piperazine-2-carboxylate] | 1000 to 5000 nM | < 100 nM
6 | Nc1ncc(-c2cccc(CN3CCN[C@H](C(=O)OC4CCCC4)C3)c2)nc1NCc1c(Cl)cccc1Cl [Example 36, Cyclopentyl (2S)-4-(3-{5-amino-6-[(2,6-dichlorobenzyl)amino]pyrazin-2-yl}benzyl)piperazine-2-carboxylate] | 300 to 1000 nM | 100 to 300 nM
7 | CC(C)(NCc1cccc(-c2cnc(N)c(NCc3c(Cl)cccc3Cl)n2)c1)C(=O)OC1CCCC1 [Example 40, Cyclopentyl N-(3-{5-amino-6-[(2,6-dichlorobenzyl)amino]pyrazin-2-yl}benzyl)-2-methylalaninate] | > 5000 nM | 1000 to 5000 nM
8 | Nc1ncc(-c2cccc(CCNC3(C(=O)OC4CCCC4)CCC3)c2)nc1NCc1c(Cl)cccc1Cl [Example 49, Cyclopentyl 1-{[2-(3-{5-amino-6-[(2,6-dichlorobenzyl)amino]pyrazin-2-yl}phenyl)ethyl]amino}cyclobutanecarboxylate] | 1000 to 5000 nM | 1000 to 5000 nM
9 | CC(C)(C)OC(=O)[C@H]1CC(NCc2ccc(-c3cnc(N)c(NCc4c(Cl)cccc4Cl)n3)cc2Cl)CCN1 (stereo partly drawn) [Example 25, tert-Butyl (2R)-4-[(4-{5-amino-6-[(2,6-dichlorobenzyl)amino]pyrazin-2-yl}-2-chlorobenzyl)amino]piperidine-2-carboxylate] | 100 to 300 nM | 300 to 1000 nM
10 | Nc1ncc(-c2cccc(CCNC3CCN[C@H](C(=O)OC4CCCC4)C3)c2)nc1NCc1c(Cl)cccc1Cl (stereo partly drawn) [Example 51, Cyclopentyl (2S)-4-{[2-(3-{5-amino-6-[(2,6-dichlorobenzyl)amino]pyrazin-2-yl}phenyl)ethyl]amino}piperidine-2-carboxylate] | < 100 nM | 100 to 300 nM
11 | Nc1ncc(-c2ccc(CNC3CCN[C@H](C(=O)OC4CCCC4)C3)cc2)nc1NCc1c(Cl)cccc1Cl (stereo partly drawn) [Example 8, Cyclopentyl (2S)-4-[(4-{5-amino-6-[(2,6-dichlorobenzyl)amino]pyrazin-2-yl}benzyl)amino]piperidine-2-carboxylate] | < 100 nM | 100 to 300 nM
12 | Nc1ncc(-c2cnn(CCNC3CCN[C@@H](C(=O)OC4CCCC4)C3)c2)nc1NCc1c(Cl)cccc1Cl (stereo partly drawn) [Example 55, Cyclopentyl (2R)-4-{[2-(4-{5-amino-6-[(2,6-dichlorobenzyl)amino]pyrazin-2-yl}-1H-pyrazol-1-yl)ethyl]amino}piperidine-2-carboxylate di-formate] | 100 to 300 nM | 100 to 300 nM
13 | CN(C(=O)c1ccc(-c2cnc(N)c(NCc3c(Cl)cccc3Cl)n2)cc1)C1CCN[C@@H](C(=O)OC(C)(C)C)C1 (stereo partly drawn) [Example 5, tert-Butyl (2R)-4-[(4-{5-amino-6-[(2,6-dichlorobenzyl)amino]pyrazin-2-yl}benzoyl)(methyl)amino]piperidine-2-carboxylate] | < 100 nM | 1000 to 5000 nM
14 | C[C@H](NCc1cccc(-c2cnc(N)c(NCc3c(Cl)cccc3Cl)n2)c1)C(=O)OC(C)(C)C [Example 45, tert-Butyl N-(3-{5-amino-6-[(2,6-dichlorobenzyl)amino]pyrazin-2-yl}benzyl)-L-alaninate] | 1000 to 5000 nM | 1000 to 5000 nM
15 | Nc1ncc(-c2ccc(CN3CCN[C@H](C(=O)OC4CCCC4)C3)cc2)nc1NCc1c(Cl)cccc1Cl [Example 10, Cyclopentyl (2S)-4-(4-{5-amino-6-[(2,6-dichlorobenzyl)amino]pyrazin-2-yl}benzyl)piperazine-2-carboxylate] | 1000 to 5000 nM | < 100 nM
16 | Nc1ncc(-c2cnn(CCNC3CCN[C@H](C(=O)OC4CCCC4)C3)c2)nc1NCc1c(Cl)cccc1Cl (stereo partly drawn) [Example 56, Cyclopentyl (2S)-4-{[2-(4-{5-amino-6-[(2,6-dichlorobenzyl)amino]pyrazin-2-yl}-1H-pyrazol-1-yl)ethyl]amino}piperidine-2-carboxylate di-formate] | 100 to 300 nM | 300 to 1000 nM
17 | Nc1ncc(-c2ccc(CN3CCN[C@@H](C(=O)OC4CCCC4)C3)cc2)nc1NCc1c(Cl)cccc1Cl [Example 11, Cyclopentyl (2R)-4-(4-{5-amino-6-[(2,6-dichlorobenzyl)amino]pyrazin-2-yl}benzyl)piperazine-2-carboxylate] | 300 to 1000 nM | < 100 nM
18 | CC(C)(C)OC(=O)C1CN(C(=O)c2ccc(-c3cnc(N)c(NCc4c(Cl)cccc4Cl)n3)cc2)CCN1 (centres unmarked) [Example 6, tert-Butyl 4-(4-{5-amino-6-[(2,6-dichlorobenzyl)amino]pyrazin-2-yl}benzoyl)piperazine-2-carboxylate] | 100 to 300 nM | 300 to 1000 nM
19 | CN(Cc1ccc(-c2cnc(N)c(NCc3c(Cl)cccc3Cl)n2)cc1)C1CCN[C@@H](C(=O)OC2CCCC2)C1 (stereo partly drawn) [Example 28, Cyclopentyl (2R)-4-[(4-{5-amino-6-[(2,6-dichlorobenzyl)amino]pyrazin-2-yl}benzyl)(methyl)amino]piperidine-2-carboxylate] | 100 to 300 nM | < 100 nM
20 | Nc1ncc(-c2ccc(CN3CCNC(C(=O)OC4CCCC4)C3)cc2)nc1NCc1c(Cl)cccc1Cl (centres unmarked) [Example 9, Cyclopentyl 4-(4-{5-amino-6-[(2,6-dichlorobenzyl)amino]pyrazin-2-yl}benzyl)piperazine-2-carboxylate] | 300 to 1000 nM | < 100 nM
21 | Nc1ncc(-c2cccc(CNC3(C(=O)OC4CCCC4)CCC3)c2)nc1NCc1c(Cl)cccc1Cl [Example 42, Cyclopentyl 1-[(3-{5-amino-6-[(2,6-dichlorobenzyl)amino]pyrazin-2-yl}benzyl)amino]cyclobutanecarboxylate di-formate] | > 5000 nM | 300 to 1000 nM
22 | Nc1ncc(-c2cccc(CNC3CCN[C@H](C(=O)OC4CCCC4)C3)c2)nc1NCc1c(Cl)cccc1Cl (stereo partly drawn) [Example 35, Cyclopentyl (2S)-4-[(3-{5-amino-6-[(2,6-dichlorobenzyl)amino]pyrazin-2-yl}benzyl)amino]piperidine-2-carboxylate di-formate] | < 100 nM | 300 to 1000 nM
